Measurements reported in US20140045806A1 (priority 2012, published 2014).
Where “and” joins values, the source holds several entries; their conditions need not be identical. Equal entries are not always repeated. Marks after values point to notes of the source that are not given here.

Tested on: postmenopausal women
Assay: ERC-210 phase III trial, Abbreviated Sexual Function (ASF) questionnaire
Format: in vivo
Text: The example below is intended only to illustrate a particular embodiment of the present invention and is not meant to limit the scope of the invention in any manner. This study (ERC-210) is a phase III, prospective, multicentre, randomized, placebo-controlled, and double-blind trial. […] The DHEA ovules or suppositories (Vaginorm™) containing prasterone in a lipophilic base were manufactured by Recipharm, Karlskoga, Sweden. The study was divided into two phases, namely screening followed by a treatment period of 12 weeks. The protocol was approved by the Institutional Review Board of the Centre Hospitalier de I'Université Laval (Quebec City, Canada), McGill University (Montreal, Canada), Ethica (Montreal, Canada), Eastern Virginia Medical School (Norfolk, Va., USA) and the Western Institutional Review Board (Los Angeles, USA).
The inclusion and exclusion criteria were as described in (Labrie, Archer et al. 2009b). A written informed consent was obtained from all subjects prior to the performance of any study-related procedure. […] A partial gynecological examination was performed to evaluate the aspect of the mucosa and tolerance to the medication on day 1 and at all visits. The standard laboratory tests, namely hematology (including complete blood count and coagulation), blood chemistry and urinalysis were performed at screening, day 1 and at all visits. Summary tabulations were prepared displaying the number of observations, mean or geometric mean as appropriate, SD; SEM, 95% two-sided CI; median, minimum, and maximum for continuous variables; and the number and percentage per category for categorical data. Statistical analyses were performed at the two-sided significance level of 0.05 unless otherwise stated. […] The endpoints for analysis consisted of the following: desire/interest, arousal and orgasm were self-rated by the women at screening, at day 1, and at week 4, 8 and 12 using the ASF and MENQOL questionnaires. Baseline was defined as the value on day 1, obtained before first use of the study treatment, and change from baseline to week 12 was calculated for each participant for each domain endpoint. The analysis comparing each dose of DHEA to placebo was performed by analysis of covariance, with the baseline value used as the covariate. Missing values were replaced by the last observation made.
The other questionnaire used in our study to investigate sexual dysfunction has been the Abbreviated Sexual Function (ASF) questionnaire. […] When the groups with no MS pain are considered, improvements of −1.2% (p=0.9028), 31% (p=0.0337), 4.8% (p=0.3706) and 3.7% (p=0.5372) are observed compared to 12% (p=0.0134), 32% (p=0.1349), 16% (p=0.8546) and 29% (p=0.0341) in the corresponding MS pain groups.
When the orgasm domain of the ASF questionnaire is analyzed, a strong placebo effect is observed in response to the composite of the three following questions; a) over the last 4 weeks, how often did you have an orgasm when you took part in sexual activity (may be with or without partner); b) over the last 4 weeks, in general, how pleasurable were the orgasms the you had and; c) over the last 4 weeks, in general, how easy was it for you to reach orgasm?

[1] = 0.25% DHEA intravaginal daily 12 weeks, MS pain at sexual activity at baseline
[2] = 0.25% DHEA intravaginal daily 12 weeks, all subjects (ITT)
[3] = 0.25% DHEA intravaginal daily 12 weeks, no MS pain at sexual activity at baseline
[4] = 0.5% DHEA intravaginal daily 12 weeks, MS pain at sexual activity at baseline
[5] = 0.5% DHEA intravaginal daily 12 weeks, all subjects (ITT)
[6] = 0.5% DHEA intravaginal daily 12 weeks, no MS pain at sexual activity at baseline
[7] = 1.0% DHEA intravaginal daily 12 weeks, no MS pain at sexual activity at baseline
[8] = Pool 3 Doses DHEA intravaginal daily 12 weeks, MS pain at sexual activity at baseline
[9] = Pool 3 Doses DHEA intravaginal daily 12 weeks, MS pain at sexual activity at baseline, listed as prasterone
[10] = Pool 3 Doses DHEA intravaginal daily 12 weeks, all subjects (ITT)
[11] = Pool 3 Doses DHEA intravaginal daily 12 weeks, all subjects (ITT), listed as prasterone
[12] = Pool 3 Doses DHEA intravaginal daily 12 weeks, no MS pain at sexual activity at baseline
[13] = Pool 3 Doses DHEA intravaginal daily 12 weeks, no MS pain at sexual activity at baseline, listed as prasterone
[14] = average of the 3 DHEA doses, MS PAIN at baseline
[15] = average of the 3 DHEA doses, NO MS PAIN at baseline
[16] = average of the 3 DHEA doses, TOTAL (all women)

## C[C@]12CC[C@H](O)CC1=CC[C@@H]1[C@@H]2CC[C@]2(C)C(=O)CC[C@@H]12 [DHEA, (3β)-3-Hydroxyandrost-5-en-17-one]
[1]
  ASF Arousal/lubrication score, average % change from baseline to Week 12 (increased from baseline): 189%
  ASF Arousal/sensation score, average % change from baseline to Week 12 (increased from baseline): 97%
  ASF Desire score, average % change from baseline to Week 12 (increased from baseline): 32%
  ASF Orgasm score, average % change from baseline to Week 12 (increased from baseline): 66%
  ASF SUMMARY SCORE, average % change from baseline to Week 12 (increased from baseline): 59%
[2]
  ASF Arousal/sensation score, average % change from baseline to Week 12 (increased from baseline): 80%
  ASF Orgasm score, average % change from baseline to Week 12 (increased from baseline): 64%
[3]
  ASF Arousal/lubrication score, average % change from baseline to Week 12 (increased from baseline): 95%
  ASF Arousal/sensation score, average % change from baseline to Week 12 (increased from baseline): 43%
  ASF Orgasm score, average % change from baseline to Week 12 (increased from baseline): 59%
  ASF SUMMARY SCORE, average % change from baseline to Week 12 (increased from baseline): 42%
[4]
  ASF Arousal/sensation score, average % change from baseline to Week 12 (increased from baseline): 66%
  ASF Desire score, average % change from baseline to Week 12 (increased from baseline): 16%
  ASF Orgasm score, average % change from baseline to Week 12 (increased from baseline): 51%
  ASF SUMMARY SCORE, average % change from baseline to Week 12 (increased from baseline): 42%
[5]
  ASF Desire score, average % change from baseline to Week 12 (increased from baseline): 13%
  ASF Orgasm score, average % change from baseline to Week 12 (increased from baseline): 53%
  ASF SUMMARY SCORE, average % change from baseline to Week 12 (increased from baseline): 39%
[6]
  ASF Arousal/lubrication score, average % change from baseline to Week 12 (increased from baseline): 106%
  ASF Arousal/sensation score, average % change from baseline to Week 12 (increased from baseline): 103%
  ASF Desire score, average % change from baseline to Week 12 (increased from baseline): 4.8%
  ASF Orgasm score, average % change from baseline to Week 12 (increased from baseline): 56%
  ASF SUMMARY SCORE, average % change from baseline to Week 12 (increased from baseline): 31%
1.0% DHEA intravaginal daily 12 weeks, MS pain at sexual activity at baseline
  ASF Orgasm score, average % change from baseline to Week 12 (increased from baseline): 76%
1.0% DHEA intravaginal daily 12 weeks, all subjects (ITT)
  ASF Orgasm score, average % change from baseline to Week 12 (increased from baseline): 71%
[7]
  ASF Arousal/lubrication score, average % change from baseline to Week 12 (increased from baseline): 63%
  ASF Arousal/sensation score, average % change from baseline to Week 12 (increased from baseline): 30%
  ASF Desire score, average % change from baseline to Week 12 (increased from baseline): 3.7%
  ASF Orgasm score, average % change from baseline to Week 12 (increased from baseline): 50%
  ASF SUMMARY SCORE, average % change from baseline to Week 12 (increased from baseline): 21%
MS group
  Sum of changes above placebo, ASF domains: 209.4%
[8]
  ASF Arousal/lubrication score, average % change from baseline to Week 12 (increased from baseline): 171%**
  ASF Arousal/sensation score, average % change from baseline to Week 12 (increased from baseline): 76.2%*
  ASF Desire score, average % change from baseline to Week 12 (increased from baseline): 24.9%
  ASF Orgasm score, average % change from baseline to Week 12 (increased from baseline): 64.3%
[9]
  ASF Arousal/lubrication score, average % change from baseline to Week 12 (increased from baseline): 171%
  ASF Arousal/sensation score, average % change from baseline to Week 12 (increased from baseline): 76.2%
  ASF Desire score, average % change from baseline to Week 12 (increased from baseline): 24.9%
  ASF Orgasm score, average % change from baseline to Week 12 (increased from baseline): 64.3%
[10]
  ASF Arousal/lubrication score, average % change from baseline to Week 12 (increased from baseline): 149%**
  ASF Arousal/sensation score, average % change from baseline to Week 12 (increased from baseline): 71.2%**
  ASF Desire score, average % change from baseline to Week 12 (increased from baseline): 21.0%*
  ASF Orgasm score, average % change from baseline to Week 12 (increased from baseline): 62.4%
  ASF SUMMARY SCORE, average % change from baseline to Week 12 (increased from baseline): 46.6%**
[11]
  ASF Arousal/lubrication score, average % change from baseline to Week 12 (increased from baseline): 149%
  ASF Arousal/sensation score, average % change from baseline to Week 12 (increased from baseline): 71.2%
  ASF Desire score, average % change from baseline to Week 12 (increased from baseline): 21.0%
  ASF Orgasm score, average % change from baseline to Week 12 (increased from baseline): 62.4%
  ASF SUMMARY SCORE, average % change from baseline to Week 12 (increased from baseline): 46.6%
[12]
  ASF Arousal/lubrication score, average % change from baseline to Week 12 (increased from baseline): 84.6%
  ASF Arousal/sensation score, average % change from baseline to Week 12 (increased from baseline): 52.7%
  ASF Desire score, average % change from baseline to Week 12 (increased from baseline): 14.0%
  ASF Orgasm score, average % change from baseline to Week 12 (increased from baseline): 55.3%
  ASF SUMMARY SCORE, average % change from baseline to Week 12 (increased from baseline): 31.1%
[13]
  ASF Arousal/lubrication score, average % change from baseline to Week 12 (increased from baseline): 84.6%
  ASF Arousal/sensation score, average % change from baseline to Week 12 (increased from baseline): 52.7%
  ASF Desire score, average % change from baseline to Week 12 (increased from baseline): 14.0%
  ASF Orgasm score, average % change from baseline to Week 12 (increased from baseline): 55.3%
[14]
  ASF Arousal/lubrication, average % change from baseline to Week 12 in severity score over placebo: 118%**
  ASF Arousal/sensation, average % change from baseline to Week 12 in severity score over placebo: 64.2%*
  ASF Desire, average % change from baseline to Week 12 in severity score over placebo: 12.9%
  ASF Orgasm, average % change from baseline to Week 12 in severity score over placebo: 14.3%
[15]
  ASF Arousal/lubrication, average % change from baseline to Week 12 in severity score over placebo: 67.6%
  ASF Arousal/sensation, average % change from baseline to Week 12 in severity score over placebo: 58.0%
  ASF Desire, average % change from baseline to Week 12 in severity score over placebo: 15.2%
  ASF Orgasm, average % change from baseline to Week 12 in severity score over placebo: 59.4%
  ASF Summary score, average % change from baseline to Week 12 in severity score over placebo: 32.1%
[16]
  ASF Arousal/lubrication, average % change from baseline to Week 12 in severity score over placebo: 104%**
  ASF Arousal/sensation, average % change from baseline to Week 12 in severity score over placebo: 62.6%**
  ASF Desire, average % change from baseline to Week 12 in severity score over placebo: 12.3%*
  ASF Orgasm, average % change from baseline to Week 12 in severity score over placebo: 26.4%
Non MS group
  Sum of changes above placebo, ASF domains: 200.2% and 202.2%
Non MS pain group versus MS pain group
  Specificity of the effect of DHEA, ASF: 30 fold
